{"source": "patent US20070066608A1", "about": "“Novel indole derivatives with an improved antipsychotic activity” (priority 2003, published 2007)", "key": {"human 5HT transporter": {"molecular_target": "T1, human 5HT transporter (Homo sapiens, UniProt P31645)", "T1 construct": "host or cells: HEK cells", "T1 sequence (P31645 whole entry)": "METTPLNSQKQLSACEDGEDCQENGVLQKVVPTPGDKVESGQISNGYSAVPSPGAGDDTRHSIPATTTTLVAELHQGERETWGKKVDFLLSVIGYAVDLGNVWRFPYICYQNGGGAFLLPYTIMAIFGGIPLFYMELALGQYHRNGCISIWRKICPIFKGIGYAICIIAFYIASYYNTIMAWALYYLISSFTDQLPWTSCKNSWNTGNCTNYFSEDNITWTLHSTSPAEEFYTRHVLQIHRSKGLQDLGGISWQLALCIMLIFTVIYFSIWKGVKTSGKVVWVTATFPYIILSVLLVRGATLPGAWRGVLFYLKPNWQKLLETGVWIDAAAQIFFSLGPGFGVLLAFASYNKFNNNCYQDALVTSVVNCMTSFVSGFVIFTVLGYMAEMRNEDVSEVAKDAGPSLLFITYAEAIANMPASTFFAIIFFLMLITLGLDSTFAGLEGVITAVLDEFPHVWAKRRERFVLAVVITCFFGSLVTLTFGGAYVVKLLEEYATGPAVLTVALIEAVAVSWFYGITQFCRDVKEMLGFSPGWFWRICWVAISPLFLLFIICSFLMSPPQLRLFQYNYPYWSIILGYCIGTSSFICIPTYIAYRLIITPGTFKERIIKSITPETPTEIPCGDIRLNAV", "assay": "Binding experiment for 5-HT transporter, [3H]Paroxetine", "conditions": "5HT transporter-transfected HEK cells, [3H]Paroxetine binding; read-out: pIC50 5HT reuptake inhibition (converted)", "protocol": "(§1) The interaction of the compounds of Formula (I) with dopamine-receptors, h5HT-transporter and h5HT1A receptor was assessed in in vitro radioligand binding experiments. In general, a low concentration of a radioligand with a high binding affinity for a particular receptor or transporter is incubated with a sample of a tissue preparation enriched in a particular receptor or transporter or with a preparation of cells expressing cloned human receptors in a buffered medium. During the incubation, the radioligand binds to the receptor or transporter. When equilibrium of binding is reached, the receptor bound radioactivity is separated from the non-bound radioactivity, and the receptor- or transporter-bound activity is counted The interaction of the test compounds with the receptor is assessed in competition binding experiments. Various concentrations of the test compound are added to the incubation mixture containing the receptor- or transporter preparation and the radioligand. The test compound in proportion to its binding affinity and its concentration inhibits binding of the radioligand.\nFrozen human 5HT transporter-transfected HEK cells (Perkin Elmer, Brussels) were thawed and briefly homogenised using an Ultra-Turrax T25 homogeniser prior to dilution to an appropriate protein concentration optimised for specific and non-specific binding. [^3H]Paroxetine (NEN, specific activity 20 Ci/mmol) was diluted in Tris-HCl assay buffer containing NaCl and KCl (50 mM 120 mM and 5 mM, respectively; pH 7.4) at a concentration of 5 nmol/L. Prepared radioligand (25 μl) was then incubated (60 min, 25° C.) with membrane preparations (200 μl) and with 25 μl of either 10% DMSO control, Imipramine (10^−6 mol/L final concentration), or compound of interest Membrane-bound activity was detected by filtration through a Packard Filtermate harvester onto Unifilterplates pre-soaked in 0.1% PEI, washing with ice-cold assay buffer (3×4 ml). Filters were dried prior to addition of scintillation fluid and then counting in a Topcount scintillation counter. % Specific bound and competition binding curves were calculated using S-Plus software (Insightful)."}, "[1]": {"molecular_target": "T2, Human Dopamine D4 receptor (Homo sapiens, UniProt P21917)", "T2 construct": "expressed in transfected cells; host or cells: Sf9 cells", "T2 sequence (P21917 1-419)": "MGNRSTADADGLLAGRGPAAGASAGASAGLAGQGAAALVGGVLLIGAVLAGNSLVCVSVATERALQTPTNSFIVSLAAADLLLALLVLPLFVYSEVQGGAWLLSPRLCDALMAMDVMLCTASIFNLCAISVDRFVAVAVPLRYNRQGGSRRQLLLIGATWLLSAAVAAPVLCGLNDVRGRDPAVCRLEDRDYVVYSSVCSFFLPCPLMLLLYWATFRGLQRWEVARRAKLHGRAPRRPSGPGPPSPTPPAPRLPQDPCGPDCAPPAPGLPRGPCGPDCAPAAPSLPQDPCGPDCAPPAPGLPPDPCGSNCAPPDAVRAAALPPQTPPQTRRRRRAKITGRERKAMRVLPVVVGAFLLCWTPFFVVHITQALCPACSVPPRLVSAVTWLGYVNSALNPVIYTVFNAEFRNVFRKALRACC", "assay": "Radioligand binding experiment for dopamine D4 receptor (hD4), [125I]Spiperone", "conditions": "membranes of D4 receptor-transfected Sf9 cells, read-out: pIC50 D4 (converted)", "protocol": "as §1, with “The test compound in proportion to its binding affinity and its concentration inhibits binding of the radioligand.” left out\nHuman Dopamine D4 receptor-transfected Sf9 cells were collected by scraping into ice-cold Tris-HCl buffer (50 mM, pH 7.4). […] Filters were allowed to dry before adding scintillation fluid and counting in a Topcount scintillation counter. % Specific bound and competition binding curves were calculated using S-Plus software (Insightful)."}}, "data": [{"smiles": "Fc1ccc2[nH]cc(C3=CCN(CC4Oc5cccnc5O4)CC3)c2c1", "note": "(centres unmarked) [Compound 7]", "values": [{"measurement": "IC50", "setting": "human 5HT transporter", "result": "> 1000", "unit": "nM"}, {"measurement": "IC50", "setting": "[1]", "result": 501, "unit": "nM"}]}]}
